pIC50: −log10 of the molar value. Read-outs that look alike come from different tables or passages of the source.

For test [1], the system named is Pan T cells isolated from C57BL6 splenocytes. In words: T cell activation assay (flow cytometry, CD25/CD69 on CD8 T cells). The format is cell-based, mouse. The conditions noted are these: for % CD25 within CD8+ / % CD69 within CD8+ / CD25 MFI / CD69 MFI: 30 μM compound, 2 days; for T cell activation and T cell function: with TCR stimulation. The method, then:
(§1) Pan T cells were isolated from C57BL6 splenocytes using a MACS Pan T cell isolation kit II (Miltenyi Biotec, Auburn, Calif.) according to the manufacturer's instructions. Isolated T cells (200,000 cells/well in a 96 well flat-bottom plate) were cultured in RPMI 1640 supplemented with 10% FBS, […] 2-mercatoethanol, 100 U/mL penicillin, and 100 μg/mL streptomycin, and incubated with the indicated concentration of compound or DMSO in duplicates. After 1 hour, mouse T cell activator CD3/CD28 Dynabeads (ThermoFisher Scientific, Waltham, Mass.) were added at a 1:5 beads to cells ratio to stimulate the T cells for 2 or 3 days as outlined below. T cells with or without compound were incubated in the absence of T cell activator beads (media only) as control.
After 2 days of stimulation, activation status of T cells was assessed by flow cytometry. T cells were first subjected to Zombie Violet™ Fixable Viability dye (BioLegend, San Diego, Calif.) for dead cell exclusion, washed and then stained with BUV805 labeled anti-CD8, APC-R700 labeled anti-CD25 (both from BD Biosciences, San Jose, Calif.) and PE labeled anti-CD69 (BioLegend, San Diego, Calif.) antibodies. After staining, cells were fixed with 2% paraformaldehyde and acquired on a BD LSRFortessa™ X-20 flow cytometer (BD Biosciences, San Jose, Calif.) using BD FACSDiva™ software. Data was analyzed using FlowJo V10 (Flow Jo LLC, Ashland, Oreg.). Dead cells were excluded and frequencies of activated CD8 T cells was reported as the frequency of CD25+ or CD69+ cells within the CD8+ population. The expression level of CD25 and CD69 indicates the activation status of cells on a per cell basis and was evaluated by the mean fluorescence intensities (MFI) of CD25 and CD69.
A general note: Flow cytometry measures light scatter and fluorescence of single cells or particles in a stream.

Test [2] addresses T1, His tagged PTPN2 (TC45) protein (Homo sapiens, UniProt P17706).
T1 construct: made in house
T1 sequence (P17706 with tags, fused parts or gaps isoform P17706-2): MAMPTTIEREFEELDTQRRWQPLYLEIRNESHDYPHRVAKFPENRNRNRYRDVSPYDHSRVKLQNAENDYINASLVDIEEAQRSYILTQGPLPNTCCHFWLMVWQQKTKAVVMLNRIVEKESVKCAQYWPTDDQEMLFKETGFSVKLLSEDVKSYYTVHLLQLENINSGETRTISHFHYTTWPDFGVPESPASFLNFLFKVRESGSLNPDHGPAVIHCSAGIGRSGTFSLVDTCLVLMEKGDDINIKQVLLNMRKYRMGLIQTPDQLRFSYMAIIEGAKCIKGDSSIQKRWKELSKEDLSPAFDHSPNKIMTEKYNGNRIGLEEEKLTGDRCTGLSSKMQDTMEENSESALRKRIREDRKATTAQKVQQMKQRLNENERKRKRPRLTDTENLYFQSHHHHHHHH
In words: Mobility shift assay (MSA) for potency of PTPN2 inhibitors. The class given is biochemical. The following applies: read-out: PTPN2 MSA IC50. An outline of the steps:
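IC50 values were derived from % inhibition of substrate conversion, measured by microfluidic mobility shift (ex 488/em 530) after quenching. The fluorescent phosphotyrosine insulin-receptor peptide ([…]) reacted for 10 min at room temperature with 0.5 nM His-tagged TC45 PTPN2 that had been preincubated 10 min with compound (12 points, 1:3). Buffer was HEPES pH 7.5 with EGTA, EDTA, Tween 20 and DTT.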

In test [3] the test system is Pan T cells isolated from C57BL6 splenocytes. In words: T cell function assay (IFNγ and TNFα in supernatants, MSD V-plex). The format is cell-based, mouse. The following applies: 30 μM compound, 3 days, supernatant. The procedure:
as §1
After 3 days of stimulation, supernatants were collected and IFNγ and TNFα in supernatants were assessed using an MSD V-plex assay (Meso Scale Discovery, Rockville, Md.).

Test [4] deals with B16F10 mouse melanoma cells. In words: B16F10 IFNγ-induced cellular growth inhibition assay. The following applies: Mus musculus, B16-F10, 33 μM compound. The format is cell-based. An outline of the steps:
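Live-cell imaging of confluence every 6 h over 5 days at 37 °C tracked growth of mouse B16F10 melanoma cells seeded overnight at 500/well. Semi-log compound series (final 100–0.001 μM, 0.1% DMSO) ran in both arms, ±IFNγ at 0.5 ng/mL final; inhibition taken relative to DMSO plus IFNγ when IFNγ-free DMSO wells passed 95% confluence.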

[5] abbreviates: anti-CD3/anti-CD28 Dynabeads (1:5 beads:cells).
[6] abbreviates: +0.5 ng/mL IFNγ, relative to DMSO control, read-out: % B16F10 growth inhibition (+0.5 ng/mL IFNγ) @ 33 μM.
The mark [7] stands for this setting: no IFNγ, read-out: % B16F10 growth inhibition (no IFNγ) @ 33 μM.

The pIC50 is the negative decadic logarithm of the IC50, by convention in mol/L. Turning to `O=C1CN(c2c(O)cc3ccc(C4=CCN(S(=O)(=O)C5CC5)C4)cc3c2F)S(=O)(=O)N1` [Compound 113, 5-{7-[1-(cyclopropanesulfonyl)-2,5-dihydro-1H-pyrrol-3-yl]-1-fluoro-3-hydroxynaphthalen-2-yl}-1λ^6,2,5-thiadiazolidine-1,1,3-trione], in test [1] (setting [5]), the “% CD25 within CD8+” value was 44.55%, the “% CD69 within CD8+” value was 73.95%, the “CD25 MFI” value is recorded as 1265 and the “CD69 MFI” value was 1891. In test [1] (no TCR stimulation), the “% CD25 within CD8+” value was 0.49%, the “% CD69 within CD8+” value turned out to be 0.24%, the “CD25 MFI” value is 51.7 and the “CD69 MFI” value came to 28.8. For the same compound, the “T cell activation and T cell function” value in test [1] was “increased both T cell activation and T cell function”. The pIC50 in test [2] was more than 9.00. Moreover, in test [3] (setting [5]), the “IFNγ” value came out at 356 ng/mL and the “TNFα” value came out at 208 ng/mL. For the same compound, in test [3] (no TCR stimulation), the “IFNγ” value amounted to 1.2 ng/mL and the “TNFα” value is 1.5 ng/mL. The inhibition at 33 µM in test [4] (setting [6]) was more than 90%. For the same compound, the inhibition at 33 µM in test [4] (setting [7]) was less than 25%.

Consider `O=C1CN(c2c(O)cc3ccc(OC(F)F)cc3c2F)S(=O)(=O)N1` [Compound 260, 5-[7-(difluoromethoxy)-1-fluoro-3-hydroxynaphthalen-2-yl]-1λ^6,2,5-thiadiazolidine-1,1,3-trione], for which, in test [1] (setting [5]), the “% CD25 within CD8+” value came out at 39.60%, the “% CD69 within CD8+” value amounted to 61.65%, the “CD25 MFI” value is 1085 and the “CD69 MFI” value stood at 464.5. Further, in test [1] (no TCR stimulation), the “% CD25 within CD8+” value was found to be 0.29%, the “% CD69 within CD8+” value was 0.17%, the “CD25 MFI” value came out at 28.3 and the “CD69 MFI” value was determined as 10.2. Further, the “T cell activation and T cell function” value in test [1] is “increased both T cell activation and T cell function”. In test [2], the pIC50 was 8.00 to 9.00. Besides, in test [3] (setting [5]), the “IFNγ” value was determined as 752 ng/mL and the “TNFα” value stood at 207 ng/mL. Besides, in test [3] (no TCR stimulation), the “IFNγ” value turned out to be 3.8 ng/mL and the “TNFα” value is 2.1 ng/mL. Besides, the inhibition at 33 µM in test [4] (setting [6]) lay in the range of 25 to 59%. Also, the inhibition at 33 µM in test [4] (setting [7]) was less than 25%.
